This is an account of results in US20240208963A1, “CRYSTALLINE MELANOCORTIN SUBTYPE-2 RECEPTOR (MC2R) ANTAGONIST” (Crinetics Pharmaceuticals, Inc., priority 2022, published 2024).

≈ marks a conversion by molar mass, not a printed value. Entries after “also recorded” stand apart in the source; their conditions may differ. Where a name gives a salt, the structure may show the parent alone. Read-outs that look alike come from different tables or passages of the source. Marks after values point to notes of the source that are not given here. Where only a bound is given, the exact number is not on record here.

Data set [1] is described as follows: Salt screening XRPD stages: drying and overnight humidity exposure. As to conditions: for Form stability upon drying (XRPD): dried under vacuum at 50° C. for at least 3 h.
Procedure: XRPD analysis is typically done in three stages: 1) Wet: XRPD of the wet cake is done for all samples whenever solids appropriate for sampling were observed. 2) Dry: Unique solids are then left on XRPD plates and dried under vacuum at 50° C. for at least 3 h. XRPD of unique dry solids are then collected. 3) Humid: Solids are then exposed to >95% relative humidity overnight and XRPD on resulting solids is collected. The humid environment is generated by placing a beaker of saturated potassium sulfate in water in a sealed container. This procedure is not carried out for any amorphous solids obtained. All XRPD patterns are compared to counter ion XRPD patterns and known free molecule patterns.
A qualitive humidity exposure test was performed by exposing approximately 10 mg of the maleate to 80% RH overnight.
Data set [2] can be described thus: Solubility of solid state forms in solvents (gravimetric or solvent addition). Type of data set: physicochemical. Here is the method:
The solubility of certain solid state forms of Compound I was determined in various solvents by either gravimetric solubility or solvent addition.
About 25 mg of compound was weighed into vials. Approximately 5 vol. (0.125 mL) of solvent was added to the solids and the mixtures stirred at the designated temperature (RT or 50° C.). Solutions were noted and an additional 0.125 mL of solvent was added to the slurries. […] If a thicker slurry was noted, 0.25 mL of solvent was added (total volume 0.5 mL). If a thick slurry was again noted, an additional 0.25 mL of solvent was added (total volume 0.75 mL). After stirring for 2 days, the slurries were centrifuged, the supernatant was collected into preweighed vials, and the solvent evaporated at 50° C. (ambient pressure) without stirring. The vials containing the solid residues were dried in a vacuum oven at 50 C, 10^−2-10^−1 Torr, for 3 h before weighing again to determine the mass of solid that was dissolved in the supernatant (i.e. mg solid/mL solvent).
About 20 mg of compound was weighed into vials. Solvent was added in aliquots and stirred at the designated temperature until complete dissolution was observed. This measurement gave a solubility range.

Data set [3] is described as follows: Form stability at ambient conditions for one week (XRPD). Type of data set: physicochemical. The note with it: maleate. An excerpt:
Some of the samples generated in the antisolvent crystallization experiments were mixtures of Pattern B, Pattern C, and Pattern D. These samples were left at ambient conditions for one week, then analyzed again by XRPD.
Pure Pattern B was generated in the antisolvent crystallization with MIBK and heptane. […] The solids were scraped from the XRPD plate and used for simultaneous TGA/DSC analysis. […] After the solids required for the TGA/DSC analysis were transferred to the pan, the remainder of the solids were re-pressed to the XRPD sample plate and analyzed again.

Data set [4] in a line: Dynamic vapor sorption (DVS). Type of data set: physicochemical. Here is the method: DVS was performed using a DVS Intrinsic 1. The sample (20-25 mg) was loaded into a sample pan, suspended from a microbalance and exposed to a humidified stream of nitrogen gas. The sample was held for a minimum of 5 min at each level and only progressed to the next humidity level if there was <0.002% change in weight between measurements (interval: 60 s) or 240 min had elapsed. The following program was used: • 1. Equilibration at 50% RH • 2. 50% to 2%. (50%, 40%, 30%, 20%, 10%, and 2%) • 3. 2% to 95% (2%, 10%, 20%, 30%, 40%, 50%, 60%, 70%, 80%, 90%, and 95%) • 4. 95% to 2% (95%, 80%, 70%, 60%, 50%, 40%, 30%, 20%, 10%, and 2%) • 5. 2% to 50% (2%, 10%, 20%, 30%, 40%, and 50%)

The nature of data set [5]: Stability of crystalline forms at 40° C. and 75% relative humidity (XRPD, HPLC purity).
Procedure: Approximately 10 mg of the Crystalline Pattern D of Compound I Maleate, 20 mg of the Crystalline Pattern C of Compound I Maleate, and 10 mg of the Crystalline Pattern E of Compound I Mandelate were weighed into open 4 mL vials that were placed into a 20 mL vial containing a saturated NaCl solution. The vial was sealed and kept at 40° C. for 7 days, creating an atmosphere at 75% relative humidity in the system. After 7 days, the materials were sampled and plated for XRPD analysis.
The stability test was repeated on Patterns C and D of Compound I Maleate for 11 days.
Data set [6] is described as follows: Solubility in simulated fluids and water. Type of data set: physicochemical. The note with it: 37° C., 30 min. Here is the method:
Calibration samples for solubility in simulated fluids were prepared with freebase Compound I.
Solubility in simulated fluids were studied with the mandelate and maleate solids. The simulated fluids FaSSIF (fasted-state intestinal), FaSSGF (fasted-state gastric), and FeSSIF (fed-state intestinal) were removed from the refrigerator, warmed to room temperature, and the pH of each was measured. Between 1.9 and 2.0 mg of each salt was weighed into four vials and 1 mL of each fluid was added, including water. Stir bars (10 mm) were added to the vials and the vials were stirred at 37° C. After 30 mi (mandelate samples) or 1 h (maleate samples), the pH of each solution was measured, then 400 μL of each was removed and syringe filtered with 0.45 µm syringe filters. Approximately 300 μL of the recovered filtrate was diluted 5× with diluent and injected for HPLC analysis. The remainder of the samples in the vials were allowed to stir overnight. After 24 h stirring at 37° C., samples were filtered and diluted as before, and injected for analysis.

Setting [7] is: 40° C., 75% relative humidity, 7 days.

Usually solubility stands for the dissolved amount per volume that the medium holds. Turning to `CCOc1ccccc1-c1ccc(N2CCN(C(=O)C3(C(F)(F)F)CCC3)C[C@H]2CC)c(C(=O)N[C@@H]2CN3CCC2CC3)n1` [Compound I Maleate, N-[(3S)-1-azabicyclo[2.2.2]octan-3-yl]-6-(2-ethoxyphenyl)-3-[(2R)-2-ethyl-4-[1-(trifluoromethyl)-cyclobutanecarbonyl]piperazin-1-yl]pyridine-2-carboxamide maleate], the “Mass gain in qualitative humidity exposure test” value in data set [1] (80% RH overnight, approximately 10 mg) is given as “No detectable mass gain”. Moreover, the solubility in data set [2] (EtOAc, 50° C., maleate) is 34 mg/mL; in data set [2] (EtOAc, RT, maleate) it was 21 mg/mL; in data set [2] (EtOH, RT, maleate) it was above 200 mg/mL; in data set [2] (IPAc, 50° C., maleate) it was 13 mg/mL; in data set [2] (IPAc, RT, maleate), 8 mg/mL; in data set [2] (MEK, RT, maleate), above 200 mg/mL. For the same compound, the solubility is given as 71 mg/mL in data set [2] (MIBK, 50° C., maleate); 49 mg/mL in data set [2] (MIBK, RT, maleate); above 200 mg/mL in data set [2] (MeOH, RT, maleate); 4 mg/mL in data set [2] (MtBE, 50° C., maleate); 4 mg/mL in data set [2] (MtBE, RT, maleate); above 200 mg/mL in data set [2] (THF, RT, maleate). Moreover, the solubility in data set [2] (acetone, RT, maleate) was above 200 mg/mL; in data set [2] (cyclohexane, 50 °C, organic solvent or mixture, thermodynamic from solid, cyclohexane, 50° C., read-out: Solubility) it was 3 mg/mL; in data set [2] (cyclohexane, organic solvent or mixture, thermodynamic from solid, cyclohexane, RT, read-out: Solubility) it was below 3 mg/mL; in data set [2] (n-heptane, 50° C., maleate) it was 3 mg/mL; in data set [2] (n-heptane, RT, maleate) it was below 3 mg/mL.
For `CCOc1ccccc1-c1ccc(N2CCN(C(=O)C3(C(F)(F)F)CCC3)C[C@H]2CC)c(C(=O)N[C@@H]2CN3CCC2CC3)n1` [Compound I, N-[(3S)-1-azabicyclo[2.2.2]octan-3-yl]-6-(2-ethoxyphenyl)-3-[(2R)-2-ethyl-4-[1-(trifluoromethyl)-cyclobutanecarbonyl]piperazin-1-yl]pyridine-2-carboxamide], the solubility in data set [2] (EtOAc, RT, listed as Amorphous free base) is >500^a mg/mL; in data set [2] (EtOH, RT, listed as Amorphous free base) it was >500^a mg/mL; in data set [2] (IPA:water (1:1 vol.), aqueous with cosolvent or surfactant or cyclodextrin, thermodynamic from solid, IPA:water (1:1 vol.), RT, read-out: Solubility), 167 to 250 mg/mL (≈ 272 to 407 mM); in data set [2] (MIBK, RT, listed as Amorphous free base), >500^a mg/mL; in data set [2] (MtBE, RT, listed as Amorphous free base) it was >500^a mg/mL; in data set [2] (acetone, RT, listed as Amorphous free base), >500^a mg/mL. Also, the solubility in data set [2] (n-heptane, RT, listed as Amorphous free base) was below 26 mg/mL; in data set [2] (toluene, organic solvent or mixture, thermodynamic from solid, toluene, RT, read-out: Solubility), above 500 mg/mL. The “Solubility (in words)” value is given as “freely soluble” in data set [2] (all solvents tested except heptane and IPA:water (1:1 vol.)); “low solubility” in data set [2] (heptane).
`CCOc1ccccc1-c1ccc(N2CCN(C(=O)C3(C(F)(F)F)CCC3)C[C@H]2CC)c(C(=O)N[C@@H]2CN3CCC2CC3)n1.O=C(O)/C=C\C(=O)O` [Pattern B, N-[(3S)-1-azabicyclo[2.2.2]octan-3-yl]-6-(2-ethoxyphenyl)-3-[(2R)-2-ethyl-4-[1-(trifluoromethyl)-cyclobutanecarbonyl]piperazin-1-yl]pyridine-2-carboxamide maleate]: the “Form stability upon drying (XRPD)” value in data set [1] is listed as “mostly converts to Pattern C”. Further, in data set [3], the “Form conversion by XRPD at ambient conditions” value is on record as “converted to Pattern C; also recorded: some low intensity peaks associated with Pattern C”.
For “N-[(3S)-1-azabicyclo[2.2.2]octan-3-yl]-6-(2-ethoxyphenyl)-3-[(2R)-2-ethyl-4-[1-(trifluoromethyl)-cyclobutanecarbonyl]piperazin-1-yl]pyridine-2-carboxamide mandelate [mandelate Pattern E]”, the “Stability after humidity exposure (XRPD, deliquescence)” value in data set [1] (>90% relative humidity overnight) is “no deliquescence or loss of crystallinity”. Also, the “Form stability upon drying (XRPD)” value in data set [1] is on record as “stable”. For the same compound, the “Hygroscopicity (in words)” value in data set [4] (DVS) is on record as “moderately hygroscopic”. The “Change by XRPD following the DVS analysis” value in data set [4] (after DVS from 2 to 95% RH) is listed as “No change”. Further, the “Reversible mass gain (DVS)” value in data set [4] (from 2 to 95% relative humidity) is 5.68 wt. %. The “Behaviour at high humidity” value in data set [4] (high humidity) is reported as “began to convert to amorphous”. Further, the “Change by XRPD after storage” value in data set [5] (setting [7]) was “No visible change”. For the same compound, the “Degradation by HPLC purity analysis after storage” value in data set [5] (setting [7]) was “no degradation”. Besides, in data set [5] (over a week at 40° C. and 75% RH), the “Stability on storage (in words)” value is reported as “stable”. Further, the results for the “Sample pH” value in data set [6] (FaSSGF (initial pH 1.49)), in data set [6] (FaSSIF (initial pH 6.35)) and in data set [6] (FeSSIF (initial pH 4.83)) were 1.53, 6.41 and 4.89, respectively.
